Results on 35 compounds are retold here after ChEMBL document CHEMBL1201862, “PubChem BioAssay data set” (2004).

The source made the active and inactive calls. Bounds are passed on as bounds.

One assay deals with T1, Cytochrome P450 1A2 (Homo sapiens, UniProt P05177).
T1 sequence (P05177 whole entry): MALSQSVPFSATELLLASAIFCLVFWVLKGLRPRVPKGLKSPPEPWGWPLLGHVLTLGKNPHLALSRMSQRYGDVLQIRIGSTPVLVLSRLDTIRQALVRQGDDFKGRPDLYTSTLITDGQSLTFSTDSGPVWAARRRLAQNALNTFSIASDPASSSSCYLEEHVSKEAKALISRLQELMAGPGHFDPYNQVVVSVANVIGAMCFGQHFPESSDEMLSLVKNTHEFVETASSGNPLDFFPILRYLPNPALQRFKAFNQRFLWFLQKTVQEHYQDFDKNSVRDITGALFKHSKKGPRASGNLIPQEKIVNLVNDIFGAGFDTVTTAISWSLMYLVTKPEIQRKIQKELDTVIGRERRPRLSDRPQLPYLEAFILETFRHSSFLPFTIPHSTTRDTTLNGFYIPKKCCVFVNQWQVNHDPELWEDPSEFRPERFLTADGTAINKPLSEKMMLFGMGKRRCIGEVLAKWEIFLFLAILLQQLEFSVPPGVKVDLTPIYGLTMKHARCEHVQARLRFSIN

The target of another assay is T2, Protein skinhead-1 (Caenorhabditis elegans, UniProt P34707).
T2 sequence (P34707 whole entry): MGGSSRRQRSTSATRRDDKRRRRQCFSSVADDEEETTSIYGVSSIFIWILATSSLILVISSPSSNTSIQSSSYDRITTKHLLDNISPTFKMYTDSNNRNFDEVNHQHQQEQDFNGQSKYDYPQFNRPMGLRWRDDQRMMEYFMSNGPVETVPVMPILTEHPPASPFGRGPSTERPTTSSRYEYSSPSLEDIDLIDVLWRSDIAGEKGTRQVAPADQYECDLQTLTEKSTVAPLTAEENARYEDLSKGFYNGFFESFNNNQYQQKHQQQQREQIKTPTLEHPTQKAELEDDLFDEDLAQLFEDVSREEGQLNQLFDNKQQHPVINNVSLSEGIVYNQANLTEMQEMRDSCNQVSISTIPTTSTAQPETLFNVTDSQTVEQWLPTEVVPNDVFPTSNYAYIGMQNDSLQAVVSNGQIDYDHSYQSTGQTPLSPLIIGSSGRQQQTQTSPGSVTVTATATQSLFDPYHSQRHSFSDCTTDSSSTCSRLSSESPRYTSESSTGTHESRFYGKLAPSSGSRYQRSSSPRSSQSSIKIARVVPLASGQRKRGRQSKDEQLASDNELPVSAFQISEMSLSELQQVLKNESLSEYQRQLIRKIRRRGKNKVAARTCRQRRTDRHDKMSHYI
It counts as functional.

Assay [1] concerns the target T3, Replicative DNA helicase DnaB (Mycobacterium tuberculosis, UniProt P9WMR3).
T3 sequence (P9WMR3 whole entry): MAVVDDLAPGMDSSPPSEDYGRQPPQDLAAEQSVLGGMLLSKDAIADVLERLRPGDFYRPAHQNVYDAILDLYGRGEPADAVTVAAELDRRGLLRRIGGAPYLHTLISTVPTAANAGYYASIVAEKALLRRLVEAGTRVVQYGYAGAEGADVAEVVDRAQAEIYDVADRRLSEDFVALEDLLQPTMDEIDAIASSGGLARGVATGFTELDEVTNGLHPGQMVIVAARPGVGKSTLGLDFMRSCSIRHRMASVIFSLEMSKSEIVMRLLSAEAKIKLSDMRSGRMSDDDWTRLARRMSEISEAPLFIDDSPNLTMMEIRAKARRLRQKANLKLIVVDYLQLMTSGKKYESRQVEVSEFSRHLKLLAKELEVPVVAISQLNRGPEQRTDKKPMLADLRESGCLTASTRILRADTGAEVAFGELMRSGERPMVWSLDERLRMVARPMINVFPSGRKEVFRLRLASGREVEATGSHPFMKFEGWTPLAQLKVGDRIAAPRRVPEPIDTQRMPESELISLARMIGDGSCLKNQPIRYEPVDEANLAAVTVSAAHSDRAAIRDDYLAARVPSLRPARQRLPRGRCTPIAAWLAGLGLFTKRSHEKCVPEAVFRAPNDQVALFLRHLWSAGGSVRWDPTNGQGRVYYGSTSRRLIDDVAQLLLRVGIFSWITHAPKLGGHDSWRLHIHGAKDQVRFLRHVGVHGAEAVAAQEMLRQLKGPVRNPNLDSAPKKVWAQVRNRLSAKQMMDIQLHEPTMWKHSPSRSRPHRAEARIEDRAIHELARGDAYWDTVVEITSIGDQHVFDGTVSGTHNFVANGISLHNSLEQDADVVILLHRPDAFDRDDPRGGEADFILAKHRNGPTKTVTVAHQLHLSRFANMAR
Description: DnaB intein splicing inhibitors, dose response, biochemical, cell-free fluorescence (AID 449749). Type of assay: functional.

The next assay concerns the target T4, Protein RecA (Mycobacterium tuberculosis, UniProt P9WHJ3).
T4 sequence (P9WHJ3 whole entry): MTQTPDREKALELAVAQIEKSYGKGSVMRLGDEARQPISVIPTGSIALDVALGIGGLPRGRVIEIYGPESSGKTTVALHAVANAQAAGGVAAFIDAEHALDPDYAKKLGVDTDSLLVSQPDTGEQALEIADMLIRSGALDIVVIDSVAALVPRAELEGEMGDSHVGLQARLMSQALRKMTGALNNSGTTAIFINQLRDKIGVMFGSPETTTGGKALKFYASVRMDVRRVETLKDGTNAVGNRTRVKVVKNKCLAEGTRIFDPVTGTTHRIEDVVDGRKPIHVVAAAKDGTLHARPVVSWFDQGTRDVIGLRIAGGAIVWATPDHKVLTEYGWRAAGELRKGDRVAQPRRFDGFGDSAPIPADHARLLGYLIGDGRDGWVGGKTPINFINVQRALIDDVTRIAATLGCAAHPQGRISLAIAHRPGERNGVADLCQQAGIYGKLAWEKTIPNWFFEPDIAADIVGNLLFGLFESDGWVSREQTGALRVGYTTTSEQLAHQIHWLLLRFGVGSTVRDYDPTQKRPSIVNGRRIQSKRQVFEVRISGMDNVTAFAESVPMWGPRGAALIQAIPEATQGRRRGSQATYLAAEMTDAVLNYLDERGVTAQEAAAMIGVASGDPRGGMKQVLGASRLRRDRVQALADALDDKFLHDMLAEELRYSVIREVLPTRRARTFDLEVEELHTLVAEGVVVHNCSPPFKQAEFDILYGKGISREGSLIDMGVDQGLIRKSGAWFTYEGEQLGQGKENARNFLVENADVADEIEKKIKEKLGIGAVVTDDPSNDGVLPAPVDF
Description: Fluorescence Cell-Free Homogeneous Dose Retest to Identify Inhibitors of RecA-Intein Splicing Activity. [Related pubchem assays (depositor defined):AID2097, AID2223, AID489010, AID492950]. Type of assay: functional.

The target in assay [2] is Luciferin 4-monooxygenase (Photinus pyralis, UniProt P08659). Description: inhibition of purified Photinus pyralis luciferase – biochemical, luminescence, dose response (AID 1891).
A short description of assay [3]: Luminescence Cell-Based Dose Confirmation HTS to Identify Inhibitors of Platelet Dense Granule Release. [Related pubchem assays: 1663 (Primary HTS), 1678 (Summary of Project)]. It counts as functional.
A short description of assay [4]: Luminescence Cell-Based Dose Retest to Confirm Inhibitors of Cancer Stem Cells. [Related pubchem assays (depositor defined):AID2717, AID2721]. It counts as functional, Homo sapiens. The conditions noted are these: Homo sapiens.
Assay [5] is described as follows: viability of uninfected HEp-2 cells – cell-based, HTS, cytotoxicity control for RSV inhibitor project, dose response (AID 2410). It counts as functional. To be noted: human respiratory syncytial virus.
For the next assay, the target named is Cytochrome P450 2C19 (Homo sapiens, UniProt P33261). The experiment in a line: Cytochrome panel assay with activity outcomes. Panel member name: p450-cyp2c19 Compounds with AC50 equal or less than 10 uM are considered active. Type of assay: functional. To be noted: read-out: AC50.
For a further assay, the target named is Cytochrome P450 3A4 (Homo sapiens, UniProt P08684).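 Note: CYP3A4 tested as one member of a cytochrome P450 panel screen.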
For the next assay, the target named is Cytochrome P450 2C9 (Homo sapiens, UniProt P11712).
Sequence of Cytochrome P450 2C9 (P11712 whole entry): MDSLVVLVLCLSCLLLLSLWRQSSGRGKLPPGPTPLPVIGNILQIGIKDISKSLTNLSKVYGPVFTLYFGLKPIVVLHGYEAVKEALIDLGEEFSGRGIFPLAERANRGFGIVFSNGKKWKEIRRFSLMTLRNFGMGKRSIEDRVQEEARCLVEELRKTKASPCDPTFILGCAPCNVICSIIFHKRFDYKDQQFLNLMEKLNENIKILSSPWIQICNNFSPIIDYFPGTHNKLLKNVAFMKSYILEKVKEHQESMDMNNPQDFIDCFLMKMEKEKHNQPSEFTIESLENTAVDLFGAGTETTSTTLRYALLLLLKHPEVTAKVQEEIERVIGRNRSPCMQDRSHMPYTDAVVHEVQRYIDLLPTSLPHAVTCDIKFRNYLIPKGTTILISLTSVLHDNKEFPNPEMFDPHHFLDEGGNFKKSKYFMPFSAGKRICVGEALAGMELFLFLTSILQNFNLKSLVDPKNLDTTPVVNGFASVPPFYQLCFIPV

Sequence of Luciferin 4-monooxygenase (P08659 whole entry): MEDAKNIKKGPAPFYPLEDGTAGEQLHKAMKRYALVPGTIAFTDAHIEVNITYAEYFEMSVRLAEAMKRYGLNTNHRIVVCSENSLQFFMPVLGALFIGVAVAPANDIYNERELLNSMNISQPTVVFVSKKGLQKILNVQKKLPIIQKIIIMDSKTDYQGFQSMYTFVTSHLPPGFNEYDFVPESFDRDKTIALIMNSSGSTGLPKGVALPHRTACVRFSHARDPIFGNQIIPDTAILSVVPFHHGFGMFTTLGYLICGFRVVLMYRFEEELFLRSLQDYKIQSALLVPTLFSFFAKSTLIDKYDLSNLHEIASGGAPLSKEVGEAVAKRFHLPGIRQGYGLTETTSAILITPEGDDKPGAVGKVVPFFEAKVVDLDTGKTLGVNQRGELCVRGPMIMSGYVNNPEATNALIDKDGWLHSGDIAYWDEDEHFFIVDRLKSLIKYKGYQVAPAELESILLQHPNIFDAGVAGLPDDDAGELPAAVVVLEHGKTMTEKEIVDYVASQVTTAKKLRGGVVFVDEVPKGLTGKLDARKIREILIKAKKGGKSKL
Sequence of Cytochrome P450 2C19 (P33261 whole entry): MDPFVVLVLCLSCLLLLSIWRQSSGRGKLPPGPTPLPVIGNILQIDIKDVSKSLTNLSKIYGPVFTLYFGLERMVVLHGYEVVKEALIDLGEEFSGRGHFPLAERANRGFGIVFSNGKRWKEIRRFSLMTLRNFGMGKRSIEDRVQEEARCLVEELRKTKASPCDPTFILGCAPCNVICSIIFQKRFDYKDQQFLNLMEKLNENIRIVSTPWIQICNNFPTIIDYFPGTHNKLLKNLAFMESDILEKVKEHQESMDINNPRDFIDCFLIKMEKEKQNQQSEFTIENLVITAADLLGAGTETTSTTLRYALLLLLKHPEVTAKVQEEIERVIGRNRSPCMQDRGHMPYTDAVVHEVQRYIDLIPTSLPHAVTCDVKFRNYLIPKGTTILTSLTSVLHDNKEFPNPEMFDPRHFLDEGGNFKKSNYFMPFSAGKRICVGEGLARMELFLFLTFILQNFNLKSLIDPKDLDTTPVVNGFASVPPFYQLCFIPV
Sequence of Cytochrome P450 3A4 (P08684 whole entry): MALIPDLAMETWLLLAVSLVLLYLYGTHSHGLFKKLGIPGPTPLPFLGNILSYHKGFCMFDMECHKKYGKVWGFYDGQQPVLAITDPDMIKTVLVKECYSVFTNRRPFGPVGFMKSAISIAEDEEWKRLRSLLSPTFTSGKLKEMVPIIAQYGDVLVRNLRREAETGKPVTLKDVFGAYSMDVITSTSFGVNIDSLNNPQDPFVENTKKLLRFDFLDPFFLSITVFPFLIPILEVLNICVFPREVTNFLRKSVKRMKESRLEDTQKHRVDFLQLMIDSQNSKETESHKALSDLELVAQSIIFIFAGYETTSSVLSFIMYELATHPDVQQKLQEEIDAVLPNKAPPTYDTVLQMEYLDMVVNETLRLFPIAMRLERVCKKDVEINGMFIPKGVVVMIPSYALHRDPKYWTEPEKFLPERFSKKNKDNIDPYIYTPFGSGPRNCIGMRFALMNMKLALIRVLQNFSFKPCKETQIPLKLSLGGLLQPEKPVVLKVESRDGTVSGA

Take `COC(=O)[C@@H]1[C@@H]2C[C@H]3c4[nH]c5cc(OC)ccc5c4CCN3C[C@@H]2C[C@H](OC(=O)/C=C\c2cc(OC)c(OC)c(OC)c2)[C@H]1OC`: on Cytochrome P450 1A2, the AC50 is 3.16 µM (inconclusive). For the compound `OC(CNC1CCCC1)COc1ccc(-c2ccccc2)cc1` (configuration not stated), the IC50 at Protein skinhead-1 is 45.6 µM (active). As to `Cc1n[nH]c2c1C(c1c(C)nn(C)c1C)C(C#N)=C(N)O2` (configuration not stated), the concentration at half-maximal activity (AC50) in assay [1] is 4.2 µM (active). The EC50 on Protein RecA was 4.86 µM (active). Take `CCOC(=O)c1cc2cc(OC)ccc2nc1C`: the EC50 in assay [2] and in [3] was > 112 µM (not active) in each case. As to `C=CCn1c(S)nnc1-c1cc(Cl)ccc1OC`, in [3], the EC50 is on record as > 112 µM (not active).

As to `O=C(O)/C=C\C(=O)Nc1ccc(Oc2ccc(Br)cc2)cc1`, the AC50 in assay [1] is 14.6 µM (active). Further, the EC50 at Protein RecA was 11 µM (active). As for `O=C1NC(c2ccc(-c3ccccc3[N+](=O)[O-])o2)C(C(=O)c2ccc(Cl)cc2)C(O)(C(F)(F)F)N1` (configuration not stated), the AC50 in [4] is 9.56 µM (active); in assay [1] it was 4.27 µM (active). As for `CCOC(=O)CCCN`, the AC50 at Cytochrome P450 1A2 was 6.31 µM (inconclusive). As to `O=C(Nc1ccc(-c2cn3ccsc3n2)cc1)C1COc2ccccc2O1` (configuration not stated), the IC50 at Protein skinhead-1 was > 100 µM (inactive). With `Clc1ccsc1-c1ccc2ccccc2n1`, the IC50 on Protein skinhead-1 was 16 µM (active). Regarding `N[C@@H](Cc1cccnn1)C(=O)O`, on Cytochrome P450 1A2, the AC50 is 3.16 µM (inconclusive). The same measure, in the same setting: as for `CN(C)c1ccc([C@@H]2N([C@H](C#N)c3ccc(N(C)C)cc3)CCCN2[C@@H](C#N)c2ccc(N(C)C)cc2)cc1`, the figure is 5.01 µM (inconclusive). Turning to `COc1ccccc1NC(=O)c1cc2n(n1)C(C(F)(F)F)CC(c1ccc3c(c1)OCO3)N2` (configuration not stated), the EC50 in [2] and in assay [3] was > 112 µM (not active) throughout. On to `CCn1c(SCC(=O)N(C)c2c(N)n(Cc3ccccc3)c(=O)[nH]c2=O)nc2ccccc21`, for which the concentration giving a half-maximal response (EC50) in assay [2] and in assay [3] was > 112 µM (not active) each time.

Consider `c1ccc2sc(-c3ccncc3)nc2c1`, for which the CC50 in assay [5] is 25.5 µM (active). Moreover, the IC50 at Protein skinhead-1 is 54.5 µM (inactive). As for `COc1cc(C(=O)Nc2nccs2)cc(OC)c1OC`, the IC50 on Protein skinhead-1 is > 100 µM (inactive).

For the compound `O=C(Nc1ccc2c(c1)OCO2)Nc1ccccc1F`, the values for the EC50 in [2] and in assay [3] were 1.77 µM (active) and 3.42 µM (active), respectively. Regarding `CCN1CCN(Cc2nc3c(c(=O)[nH]c(=O)n3C)n2Cc2ccccc2Cl)CC1`, the EC50 in assay [2] was > 112 µM (not active); in assay [3] it was 18.6 µM (active). Regarding `COC(=O)c1ccc(S(=O)(=O)N2CCCCCC2)cc1`, the IC50 at Protein skinhead-1 is > 100 µM (inactive). `Cc1ccc(NC(=O)COc2ccc(Br)cc2CO)cc1S(=O)(=O)N1CCOCC1`: the IC50 at Protein skinhead-1 is > 100 µM (inactive). On to `O=c1cc(C23CC4CC(CC(C4)C2)C3)[nH][nH]1`, for which the AC50 in [1] was 2.85 µM (active). Moreover, the EC50 at Protein RecA was 2.52 µM (active). Regarding `COC(=O)c1ccc(NC(=O)C(=O)c2cccn2C)cc1`, the EC50 in assay [2] is 1.74 µM (active); in assay [3], 2.39 µM (active). Turning to `Cc1ccc(/C=N/NC(=O)Cn2nccc2C)o1`, the AC50 at Cytochrome P450 2C19 was 11.2 µM (inconclusive); at Cytochrome P450 1A2, 15.8 µM (inconclusive). `Cc1nnc(SCCn2c(N3CC(C)CC(C)C3)nc3c2c(=O)n(C)c(=O)n3C)s1` (configuration not stated): the IC50 at Protein skinhead-1 was > 100 µM (inactive). For `COc1ccc(C2C(C(C)=O)=C(C)N=c3s/c(=C\c4cc(C)n(C)c4C)c(=O)n32)c(OC)c1` (configuration not stated), on Protein skinhead-1, the IC50 was > 100 µM (inactive). On to `CSc1nc(-c2ccco2)nn1C(=O)c1cccs1`, for which the AC50 in assay [1] was 28.3 µM (active). Moreover, at Protein RecA, the EC50 was 24.7 µM (active). In the case of `O[C@H](CN1CCN(c2cccc(Cl)c2)CC1)C(c1ccccc1)c1ccccc1`, the half-maximal activity concentration (AC50) on Cytochrome P450 1A2 is 31.6 µM (inconclusive). On to `COc1ccc(-c2cc(-c3ccccc3)[nH]n2)c(O)c1`, for which the IC50 at Protein skinhead-1 is > 100 µM (inactive).

Regarding `COCc1n[nH]c2c1C(c1ccccc1F)C(C#N)=C(N)O2` (configuration not stated), the AC50 in assay [1] is 36.4 µM (active). Besides, at Protein RecA, the EC50 was 6.49 µM (active). As for `CC(C)(C)NC(=O)COC(=O)c1cncc(Br)c1`, the AC50 was 20 µM (inconclusive) on Cytochrome P450 1A2 and 15.8 µM (inconclusive) on Cytochrome P450 3A4. As to `CCCCCCCCCCCCCCCC(=O)C(F)(F)F`, on Cytochrome P450 1A2, the AC50 is 31.6 µM (inconclusive).

Regarding `CC(C)C(=O)NCCc1nc(-c2ccccc2Cl)no1`, on Protein skinhead-1, the IC50 is > 100 µM (inactive). For the compound `CC(C)NC(=O)C1(C)CSCC(=O)N1CCCN1CCOCC1` (configuration not stated), the IC50 at Protein skinhead-1 was > 100 µM (inactive).

With `C[C@@H](CN)CC(=O)O`, the AC50 on Cytochrome P450 1A2 is 39.8 µM (inconclusive). Take `COc1cc(N)c(Cl)cc1C(=O)N[C@H]1CCN(CCCOc2ccc(F)cc2)C[C@@H]1OC`: the values for the AC50 at Cytochrome P450 2C19, on Cytochrome P450 1A2 and at Cytochrome P450 2C9 were 0.794 µM (active), 25.1 µM (inconclusive) and 1 µM (active), respectively.
